Among the data in patent US20050004167A1, “Branched chain amino acid-dependent aminotransferase inhibitors and their use in the treatment of neurodegenerative diseases” (WARNER-LAMBERT COMPANY LLC, priority 2001, published 2005) are IC50 and melting point values, retold here.

“And” between values parts separate entries of the source, which are not always exact repeats. Identical values can stand only once. Where only a bound is given, the exact number is not on record here.

One data set deals with T1, human Branched Chain Amino Acid Aminotransferase cytosolic form (hBCATc) (Homo sapiens, UniProt P54687).
T1 construct: made in house; host or cells: E. coli BL21(DE3)
T1 sequence (P54687 1-386): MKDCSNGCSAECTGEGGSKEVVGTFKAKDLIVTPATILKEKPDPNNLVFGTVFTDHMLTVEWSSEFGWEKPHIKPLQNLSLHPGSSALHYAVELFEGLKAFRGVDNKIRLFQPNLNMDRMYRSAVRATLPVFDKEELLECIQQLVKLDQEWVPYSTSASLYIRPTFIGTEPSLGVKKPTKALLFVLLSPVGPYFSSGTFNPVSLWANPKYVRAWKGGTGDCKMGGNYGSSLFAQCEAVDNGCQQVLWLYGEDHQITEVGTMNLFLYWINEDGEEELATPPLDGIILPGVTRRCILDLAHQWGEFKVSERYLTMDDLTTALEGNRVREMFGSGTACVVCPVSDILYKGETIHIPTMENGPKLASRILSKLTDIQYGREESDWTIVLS
Put plainly: In vitro coupled enzyme assay (glutamate dehydrogenase, NADH formation), human BCATc. The data set is classed as biochemical. The settings on record: recombinant human BCATc, 37° C., 25 mM phosphate buffer pH 7.8; several values in a cell = repeat determinations; read-out: RhBCATc. How it is done: In vitro enzyme assay—human Branched Chain Amino Acid Aminotransferase cytosolic form (hBCATc) and mitochondrial form (hBCATm) as well as rat BCAT cytosolic form were assayed at 37° C. in 25 mM phosphate buffer pH 7.8. In addition, 2 mM DTT and 12.5 mM […] were added to the assay mixture. A coupling enzyme assay was used to monitor the production of glutamate. The formation of NADH from NAD+ at […] was followed on a 96-well plate Molecular Devices plate reader.
The following components were used in this coupled assay: 4 mM ADP, 1 mM NAD+, 750 μM L-Leucine, 500 μM α-ketoglutarate, 10 μM pyridoxal phosphate, 1 unit glutamate dehydrogenase, and 1.25 μg of the appropriate BCAT enzyme. Inhibitions by compounds were assayed by adding various concentrations to this coupled assay procedure as a DMSO stock up to a 5% v/v DMSO/buffer ratio.
Enzyme Preparation—humanBCATc and ratBCATc were expressed in BL21(DE3) cells. A growing culture of cells was induced with 1 mM IPTG at room temperature overnight. These cells were harvested by centrifugation at 10,000 g for 20 minutes. The supernatant was discarded, and the cells were stored at −80° C. until needed. The protein was purified by the following method. The cell paste was resuspended in extraction buffer (0.1 M phosphate, pH 8.0, with 0.01 M Tris-HCL and 5 mM TCEP and then lysed on a French Press at 1000 psi. The lysate was centrifuged at 10,000 g for 15 minutes, and the pellet was discarded. The supernatant was loaded onto a Hitrap Chelating column previously charged with 0.1 M NiSO4 and washed with 3 to 4 column volumes of extraction buffer. The column was then washed with 0.01 Tris, pH 7.5, 10% glycerol, 150 mM NaCl, 5 mM TCEP for two column volumes. The column was then further washed with two column volumes of 0.1 M phosphate, pH 6.0, 0.01 M Tris, 10% glycerol and 750 mM NaCl. Finally, the column was washed with two column volumes of the same buffer plus 50 mM imidazole. The BCAT enzyme was then eluted with the same buffer but with 350 mM imidazole. The eluant was then dialyzed overnight against 10 mM phosphate buffer pH 8.0, 10% glycerol, and 5 mM TCEP. The dialyzed protein was then loaded onto a Q-sepharose column and eluted using a salt gradient. Active fractions were collected and further purified on a Superose-12 column to yield pure BCAT protein.
Turning to `O=C(NNS(=O)(=O)c1ccccc1)c1cccc2oc3ccccc3c12` [Example 12, 1-Dibenzofurancarboxylic acid 2-(phenylsulfonyl)hydrazide], the IC50 was determined as 90.5 µM. For `O=C(NNS(=O)(=O)c1ccccc1)c1cccc2cccnc12` [Example 21, Quinoline-8-carboxylic acid 2-(phenylsulfonyl)hydrazide], the IC50 is greater than 100 µM. In the case of `COc1cccc2cc(C(=O)NNS(=O)(=O)c3ccccc3C(F)(F)F)oc12` [Example 54, 2-Benzofurancarboxylic acid, 7-methoxy-, 2-[[2-(trifluoromethyl)phenyl]-sulfonyl]hydrazide], the IC50 worked out at 3.76 µM. Consider `COc1cccc2cc(C(=O)NNS(=O)(=O)c3cccc(C)c3)oc12` [Example 55, 2-Benzofurancarboxylic acid, 7-methoxy-, 2-[(3-methylphenyl)sulfonyl]hydrazide], for which the IC50 is 3.53 µM and 3.3 µM. Take `COc1c(C(=O)NNS(=O)(=O)c2ccccc2)oc2ccc(Cl)cc12` [Example 78, 2-Benzofurancarboxylic acid, 5-chloro-3-methoxy, 2-(phenylsulfonyl)hydrazide]: the IC50 stood at 3.7 µM. As to `Cc1ccc(S(=O)(=O)NNC(=O)c2cnc3ccccc3c2)cc1` [Example 127, 3-Quinolinecarboxylic acid, 2-[(4-methylphenyl)sulfonyl]hydrazide], the IC50 amounted to 16.8 µM. Take `Cc1cccc(S(=O)(=O)NNC(=O)c2ccc3ncccc3c2)c1` [Example 128, 6-Quinolinecarboxylic acid, 2-[(3-methylphenyl)sulfonyl]hydrazide]: the IC50 turned out to be 12 µM. `Cc1cccc(S(=O)(=O)NNC(=O)c2cnc3ccccc3c2)c1` [Example 129, 3-Quinolinecarboxylic acid, 2-[(3-methylphenyl)sulfonyl]hydrazide]: the IC50 was found to be 13 µM. With `O=C(NNS(=O)(=O)c1cccc(Cl)c1)c1ccc2ncccc2c1` [Example 130, 6-Quinolinecarboxylic acid, 2-[(3-chlorophenyl)sulfonyl]hydrazide], the IC50 was 22 µM. With `O=C(NNS(=O)(=O)c1cccc(Cl)c1)c1cnc2ccccc2c1` [Example 131, 3-Quinolinecarboxylic acid, 2-[(3-chlorophenyl)sulfonyl]hydrazide], the IC50 stood at 61 µM. In the case of `O=C(NNS(=O)(=O)c1cccc(F)c1)c1ccc2ncccc2c1` [Example 132, 6-Quinolinecarboxylic acid, 2-[(3-fluorophenyl)sulfonyl]hydrazide], the IC50 came to 40 µM. `O=C(NNS(=O)(=O)c1cccc(F)c1)c1cnc2ccccc2c1` [Example 133, 3-Quinolinecarboxylic acid, 2-[(3-fluorophenyl)sulfonyl]hydrazide]: the IC50 was greater than 100 µM. Still for that read-out and setting: to `O=C(NNS(=O)(=O)c1cc(Cl)cc(Cl)c1)c1ccc2ncccc2c1` [Example 138, 6-Quinolinecarboxylic acid, 2-[(3,5-dichlorophenyl)sulfonyl]hydrazide] belongs greater than 100 µM; to `O=C(NNS(=O)(=O)c1cc(Cl)cc(Cl)c1)c1cnc2ccccc2c1` [Example 139, 3-Quinolinecarboxylic acid, 2-[(3,5-dichlorophenyl)sulfonyl]hydrazide], 41 µM. As to `O=C(NNS(=O)(=O)c1ccccc1)c1nccc2ccccc12` [Example 152, Isoquinoline-1-carboxylic acid 2-(phenylsulfonyl)hydrazide], the IC50 is greater than 100 µM.

Tested on in the next data set: not given
Experiment: not given
Conditions: not given
One may read the melting point as the temperature, or range, at which the solid turns liquid. For `CN(C)c1ccc2[nH]c(C(=O)NNS(=O)(=O)c3ccccc3)cc2c1.Cl`, the melting point was in the range of 251.6 to 252.7 °C. As to `CN(C)c1ccccc1S(=O)(=O)NNC(=O)c1ccc2oc3ccccc3c2c1.Cl`, the melting point was in the range of 103.2 to 103.9 °C. `CN(C)c1ccc2oc(C(=O)NNS(=O)(=O)c3ccccc3)cc2c1.Cl` gave a melting point of 218.3 to 218.9 °C. Molecule `CN(C)c1ccc(S(=O)(=O)NNC(=O)c2ccc3oc4ccccc4c3c2)cc1.Cl` gave a melting point of 187.6 to 188.8 °C.

Turning to `O=C(NNS(=O)(=O)c1ccccc1)c1ccc2c(c1)OCO2` (hydrate or solvate) [Example 10, Benzo[1,3]dioxole-5-carboxylic acid 2-(phenylsulfonyl)hydrazide], the melting point was in the range of 156 to 158 °C. As for `O=C(NNS(=O)(=O)c1ccccc1)c1ccc2ncccc2c1` (hydrate or solvate) [Example 13, Quinoline-6-carboxylic acid 2-(phenylsulfonyl)hydrazide], the melting point was in the range of 211 to 214 °C. As to `O=C(NNS(=O)(=O)c1ccccc1)c1cccc2cccnc12` (hydrate or solvate) [Example 21, Quinoline-8-carboxylic acid 2-(phenylsulfonyl)hydrazide], the melting point was 173 to 175 °C. In turn, `O=C(NNS(=O)(=O)c1ccccc1)c1cc2cc([N+](=O)[O-])ccc2o1` (hydrate or solvate) [Example 34, 2-Benzofurancarboxylic acid, 5-nitro-, 2-(phenylsulfonyl)hydrazide] yielded a melting point of 207.7 to 208.1 °C. `COc1cccc2cc(C(=O)NNS(=O)(=O)c3ccccc3C(F)(F)F)oc12` (hydrate or solvate) [Example 54, 2-Benzofurancarboxylic acid, 7-methoxy-, 2-[[2-(trifluoromethyl)phenyl]-sulfonyl]hydrazide] yielded a melting point of 156.8 to 157.6 °C. `COc1cccc2cc(C(=O)NNS(=O)(=O)c3cccc(C)c3)oc12` (hydrate or solvate) [Example 55, 2-Benzofurancarboxylic acid, 7-methoxy-, 2-[(3-methylphenyl)sulfonyl]hydrazide] yielded a melting point of 170.8 to 171.8 °C. On to `COc1ccc2cc(C(=O)NNS(=O)(=O)c3ccccc3)oc2c1` (hydrate or solvate) [Example 56, 2-Benzofurancarboxylic acid, 6-methoxy-, 2-(phenylsulfonyl)hydrazide], for which the melting point lay in the range of 224.9 to 225.8 °C.

In turn, `COc1ccc2oc(C(=O)NNS(=O)(=O)c3ccccc3)c(OC(C)C)c2c1` (hydrate or solvate) [Example 57, 2-Benzofurancarboxylic acid, 5-methoxy-3-(1-methylethoxy), 2-(phenylsulfonyl)-hydrazide] had a melting point of 127 to 129 °C.

Molecule `COc1cc(OC)c2cc(C(=O)NNS(=O)(=O)c3ccccc3)oc2c1` (hydrate or solvate) [Example 60, 2-Benzofurancarboxylic acid, 4,6-dimethoxy-, 2-(phenylsulfonyl)hydrazide] gave a melting point of 230.6 to 231 °C.

The molecule `COc1c(C(=O)NNS(=O)(=O)c2ccccc2)oc2c(OC)cccc12` (hydrate or solvate) [Example 61, 2-Benzofurancarboxylic acid, 3,7-dimethoxy-, 2-(phenylsulfonyl)hydrazide] gave a melting point of 177.9 to 179.6 °C. The same measure, in the same setting: to `COc1c(C(=O)NNS(=O)(=O)c2ccccc2C(F)(F)F)oc2c(OC)cccc12` (hydrate or solvate) [Example 62, 2-Benzofurancarboxylic acid, 3,7-dimethoxy-, 2-[(2-trifluoromethylphenyl)-sulfonyl]hydrazide] belongs 190.6 to 192.3 °C; to `COc1c(C(=O)NNS(=O)(=O)c2ccc(F)cc2)oc2c(OC)cccc12` (hydrate or solvate) [Example 63, 2-Benzofurancarboxylic acid, 3,7-dimethoxy-, 2-[(4-fluorophenyl)sulfonyl]-hydrazide], 190.9 to 191.1 °C; to `COc1c(C(=O)NNS(=O)(=O)c2cccc(C)c2)oc2c(OC)cccc12` (hydrate or solvate) [Example 64, 2-Benzofurancarboxylic acid, 3,7-dimethoxy-, 2-[(3-methylphenyl)sulfonyl]-hydrazide], 179.4 to 180.9 °C.
